From patent US7618641B2, “Functionally reconstituted viral membranes containing adjuvant” (priority 2003, dated 2009)

Tested on: influenza proteins (A/Panama/2007/99)
Assay type: in vivo, Balb/C mice
Conditions: intranasal, day 0 and 14, 5 μg influenza proteins, lipopeptide in reconstituted membranes

| Substance | enhancement of the immune response |
| --- | --- |
| N-palmitoyl-S-2,3(bispalmitoyloxy)-propyl-cysteinyl-seryl-(lysil)3-lysine [lysine derivative] | approximately equivalent enhancement of the immune response |
| N-palmitoyl-S-2,3(bispalmitoyloxy)-propyl-cysteinyl-seryl-(prolyl)3-proline [proline derivative] | approximately equivalent enhancement of the immune response |
